Data on 28 compounds can be found in patent US20250002464A1, “NOVEL COMPOUND AND PHARMACEUTICAL COMPOSITION COMPRISING SAME” (SAPIENSBIO INC., priority 2021, published 2025).

As usually defined, the inhibition is how much of the control response was suppressed. Read a low inhibition as a response near the control.

For the assay, the system named is α-SMA. The experiment in a line: α-SMA expression inhibitory ability in MRC5 cell line (Western blotting). The assay is classed as cell-based. The note with it: TGF-β1 (10 ng/mL), 72 hours, relative to TGF-β1 only. In outline: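 MRC5 cells given compound at 10 μM, then TGF-β1 (10 ng/mL) 2 h later; after 72 h, lysates probed for α-SMA by Western blot. Inhibition is α-SMA level relative to TGF-β1 alone, binned A ≥70%, B 50–<70%, C <50%.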
In general terms: A western blot detects proteins with antibodies after separation by electrophoresis.
Turning to `CC(NC1CCN(C)C1)C(=O)N1CCN(c2ccccc2)c2ccccc21` (stereo not shown) [Compound 65, 2-((1-methylpyrrolidin-3-yl)amino)-1-(4-phenyl-3,4-dihydroquinoxaline-1(2H)-yl)propan-1-one], the inhibition at 10 µM is less than 50%. With `O=C(CCN1CCCCC1)N1CCN(CC2CC2)c2ccccc21` [Compound 162, 1-(4-(cyclopropylmethyl)-3,4-dihydroquinoxaline-1(2H)-yl)-3-(piperidin-1-yl)propan-1-one] the figure was less than 50%. With `O=C(CCN1CCCC1)N1CCN(C2CCCCC2)c2ccccc21` [Compound 186, 1-(4-cyclohexyl-3,4-dihydroquinoxaline-1(2H)-yl)-3-(pyrrolidin-1-yl)propan-1-one] the figure was 50 to 70%. Consider `CN1CCN(CCC(=O)N2CCN(c3ccccc3)c3cc(F)ccc32)CC1` [Compound 4, 1-(6-fluoro-4-phenyl-3,4-dihydroquinoxaline-1(2H)-yl)-3-(4-methylpiperazin-1-yl)propan-1-one], for which the inhibition at 10 µM fell in the range of 50 to 70%. With `O=C(CCN1CCCC1)N1CCN(c2ccncc2)c2ccccc21` [Compound 158, 1-(4-(pyridin-4-yl)-3,4-dihydroquinoxaline-1(2H)-yl)-3-(pyrrolidin-1-yl)propan-1-one] the figure was less than 50%; with `CN1CCN(CCC(=O)N2CCN(C3CCCCC3)c3ccccc32)CC1` [Compound 188, 1-(4-cyclohexyl-3,4-dihydroquinoxaline-1(2H)-yl)-3-(4-methylpiperazin-1-yl)propan-1-one], 50 to 70%; with `CC(C(=O)N1CCN(c2ccc(F)cc2)c2cc(F)ccc21)N1CCCC1` (stereo not shown) [Compound 51, 1-(6-fluoro-4-(4-fluorophenyl)-3,4-dihydroquinoxaline-1(2H)-yl)-2-(pyrrolidin-1-yl)propan-1-one], no less than 70%. In the case of `CC(C(=O)N1CCN(c2ccc(Cl)cc2)c2ccccc21)N1CCN(C)CC1` (stereo not shown) [Compound 145, 1-(4-(4-chlorophenyl)-3,4-dihydroquinoxaline-1(2H)-yl)-2-(4-methylpiperazin-1-yl)propan-1-one], the inhibition at 10 µM is no less than 70%. With `N[C@H](Cc1c[nH]cn1)C(=O)N1CCN(c2ccc(F)cc2)c2cc(F)ccc21` [Compound 48, (R)-2-amino-1-(6-fluoro-4-(4-fluorophenyl)-3,4-dihydroquinoxaline-1(2H)-yl)-3-(1H-imidazol-4-yl)propan-1-one] the figure was less than 50%. In the case of `CC(C(=O)N1CCN(c2ccccn2)c2ccccc21)N1CCCCC1` (stereo not shown) [Compound 150] it was no less than 70%; in that of `CN1CCN(CCC(=O)N2CCN(c3ccc(F)cc3)c3cc(F)ccc32)CC1` [Compound 39, 1-(6-fluoro-4-(4-fluorophenyl)-3,4-dihydroquinoxaline-1(2H)-yl)-3-(4-methylpiperazin-1-yl)propan-1-one], 50 to 70%. Consider `CN1CCN(CCC(=O)N2CCN(C(=O)c3ccccc3)c3ccccc32)CC1` [Compound 198, 1-(4-benzoyl-3,4-dihydroquinoxaline-1(2H)-yl)-3-(4-methylpiperazin-1-yl)propan-1-one], for which the inhibition at 10 µM was less than 50%. With `CN1CCN(CCC(=O)N2CCN(CC3CC3)c3ccccc32)CC1` [Compound 163, 1-(4-(cyclopropylmethyl)-3,4-dihydroquinoxaline-1(2H)-yl)-3-(4-methylpiperazin-1-yl)propan-1-one] the figure was less than 50%; with `CC(C(=O)N1CCN(C2CCCCC2)c2ccccc21)N1CCCCC1` (stereo not shown) [Compound 191, 1-(4-cyclohexyl-3,4-dihydroquinoxaline-1(2H)-yl)-2-(piperidin-1-yl)propan-1-one], 50 to 70%; with `O=C(CCN1CCCCC1)N1CCN(Cc2ccccc2)c2ccccc21` [Compound 79, 1-(4-benzyl-3,4-dihydroquinoxaline-1(2H)-yl)-3-(piperidin-1-yl)propan-1-one], less than 50%. As to `O=C(CCN1CCCCC1)N1CCN(Cc2ccccc2Cl)c2ccccc21` [Compound 88, 1-(4-(2-chlorobenzyl)-3,4-dihydroquinoxaline-1(2H)-yl)-3-(piperidin-1-yl)propan-1-one], the inhibition at 10 µM was less than 50%.

`CC(C(=O)N1CCN(c2ccccc2Cl)c2ccccc21)N1CCCC1` (stereo not shown) [Compound 128, 1-(4-(2-chlorophenyl)-3,4-dihydroquinoxaline-1(2H)-yl)-2-(pyrrolidin-1-yl)propan-1-one] had an inhibition at 10 µM of 50 to 70%. Consider `O=C(CCN1CCCC1)N1CCN(c2ccc(F)cc2)c2cc(F)ccc21` [Compound 36, 1-(6-fluoro-4-(4-fluorophenyl)-3,4-dihydroquinoxaline-1(2H)-yl)-3-(pyrrolidin-1-yl)propan-1-one], for which the inhibition at 10 µM is no less than 70%. In the case of `O=C(CCN1CCCC1)N1CCN(Cc2ccncc2)c2ccccc21` [Compound 122, 1-(4-(pyridin-4-ylmethyl)-3,4-dihydroquinoxaline-1(2H)-yl)-3-(pyrrolidin-1-yl)propan-1-one] it was 50 to 70%; in that of `CC(C(=O)N1CCN(c2ccccc2)c2cc(F)ccc21)N1CCCC[C@H]1C` (stereo partly drawn) [Compound 8, 1-(6-fluoro-4-phenyl-3,4-dihydroquinoxaline-1(2H)-yl)-2-((R)-2-methylpiperidin-1-yl)propan-1-one], less than 50%; in that of `O=C(CCN1CCCCC1)N1CCN(c2ccncc2)c2ccccc21` [Compound 159, 3-(piperidin-1-yl)-1-(4-(pyridin-4-yl)-3,4-dihydroquinoxaline-1(2H)-yl)propan-1-one], less than 50%. In turn, `O=C(CN1CCN(c2ccccc2)c2ccccc21)N1CCCC(O)C1` (stereo not shown) [Compound 77, 1-(3-hydroxypiperidin-1-yl)-2-(4-phenyl-3,4-dihydroquinoxaline-1(2H)-yl)ethan-1-one] had an inhibition at 10 µM of less than 50%. `O=C(CN1CCCCC1)N1CCN(Cc2ccccc2)c2ccccc21` [Compound 85, 1-(4-benzyl-3,4-dihydroquinoxaline-1(2H)-yl)-2-(piperidin-1-yl)ethan-1-one] returned an inhibition at 10 µM of less than 50%. With `CC(C(=O)N1CCN(c2ccc(F)cc2)c2cc(F)ccc21)N1CCCCC1` (stereo not shown) [Compound 53, 1-(6-fluoro-4-(4-fluorophenyl)-3,4-dihydroquinoxaline-1(2H)-yl)-2-(piperidin-1-yl)propan-1-one], the inhibition at 10 µM was less than 50%.

The compound `C[C@@H]1CCCCN1C(=O)CN1CCN(c2ccccc2)c2ccccc21` [Compound 70, (R)-1-(2-methylpiperidin-1-yl)-2-(4-phenyl-3,4-dihydroquinoxaline-1(2H)-yl)ethan-1-one] showed an inhibition at 10 µM of 50 to 70%. In the case of `CC(C)N1CCN(C(=O)CN2CCCCC2)c2ccccc21` [Compound 184, 1-(4-isopropyl-3,4-dihydroquinoxaline-1(2H)-yl)-2-(piperidin-1-yl)ethan-1-one] it was less than 50%; in that of `CC(C(=O)N1CCN(c2ccc(F)cc2)c2cc(F)ccc21)N1CCN(C)CC1` (stereo not shown) [Compound 52, 1-(6-fluoro-4-(4-fluorophenyl)-3,4-dihydroquinoxaline-1(2H)-yl)-2-(4-methylpiperazin-1-yl)propan-1-one], less than 50%. `CC(C(=O)N1CCN(c2ccccc2)c2cc(F)ccc21)N1CCC[C@H]1C` (stereo partly shown) [Compound 13] registered an inhibition at 10 µM of less than 50%.
